Measurements reported in patent publication US8957061B2, “Azetidine derivatives as sphingosine 1-phosphate (S1P) receptor modulators” (Allergan, Inc., priority 2013, dated 2015).

Biological target: T1, human S1P1 receptor (Homo sapiens, UniProt P21453)
T1 construct: expressed in transfected cells; membranes used
Test: GTP γ35S binding assay for S1P1 activity
Assay type: biochemical
Settings: activity potency, S1P1 receptor from GTP γ35S; membranes of cells stably expressing the S1P1 receptor; test concentrations 0.08 to 5,000 nM
Experimental: Compounds were synthesized and tested for S1P1 activity using the GTP γ^35S binding assay. These compounds may be assessed for their ability to activate or block activation of the human S1P1 receptor in cells stably expressing the S1P1 receptor. GTP γ^35S binding was measured in the medium containing (mM) HEPES 25, pH 7.4, MgCl2 10, NaCl 100, dithiothreitol 0.5, digitonin 0.003%, 0.2 nM GTP γ^35S, and 5 μg membrane protein in a volume of 150 μl. Test compounds were included in the concentration range from 0.08 to 5,000 nM unless indicated otherwise. Membranes were incubated with 100 μM 5′-adenylylimidodiphosphate for 30 min, and subsequently with 10 μM GDP for 10 min on ice. Drug solutions and membrane were mixed, and then reactions were initiated by adding GTP γ^35S and continued for 30 min at 25° C. Reaction mixtures were filtered over Whatman GF/B filters under vacuum, and washed three times with 3 mL of ice-cold buffer (HEPES 25, pH7.4, MgCl2 10 and NaCl 100). Filters were dried and mixed with scintillant, and counted for ^35S activity using a β-counter. Agonist-induced GTP γ^35S binding was obtained by subtracting that in the absence of agonist. Binding data were analyzed using a non-linear regression method.

T1 sequence (P21453 whole entry): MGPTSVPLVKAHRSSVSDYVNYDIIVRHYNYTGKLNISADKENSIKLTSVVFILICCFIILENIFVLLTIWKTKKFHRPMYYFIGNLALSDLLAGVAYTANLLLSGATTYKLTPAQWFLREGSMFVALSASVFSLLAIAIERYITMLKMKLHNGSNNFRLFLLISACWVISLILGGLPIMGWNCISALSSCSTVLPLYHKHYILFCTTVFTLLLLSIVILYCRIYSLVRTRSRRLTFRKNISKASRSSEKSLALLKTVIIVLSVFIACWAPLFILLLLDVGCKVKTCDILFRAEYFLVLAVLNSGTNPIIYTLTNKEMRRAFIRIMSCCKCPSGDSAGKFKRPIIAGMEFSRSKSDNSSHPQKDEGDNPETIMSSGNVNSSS

EC50: 0.121 µM
SMILES: Cc1ccc(CC(CCC[S+]([O-])c2ccc(CN3CC(C(=O)O)C3)cc2)c2cccc(Cl)c2)cc1C (stereo not shown) [Compound 1, 1-(4-{[4-(3-Chlorophenyl)-5-(3,4-dimethylphenyl)pentyl]sulfinyl}benzyl)azetidine-3-carboxylic acid]
